Source: patent US12065436B2, “Cardiac sarcomere inhibitors” (Cytokinetics, Inc., priority 2018, dated 2024)
Read-outs that look alike come from different tables or passages of the source.

Assays:
[1] = system: rat cardiac contractility (left ventricle fractional shortening); test: Echocardiography of acute effect on rat cardiac contractility, oral gavage; type: in vivo, Sprague Dawley rats; settings: for inhibition in vivo at 6 mg/kg: oral gavage
Summary of the method: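 Male Sprague Dawley rats under isoflurane (1-3%) anesthesia had three pre-dose baseline M-mode images of the left ventricle (parasternal long-axis view) taken at 1 minute intervals. Compound in 0.5% HPMC 2910: 0.1% Tween 80 suspension was then given as a single oral gavage dose (5 mL/kg). Fractional shortening was measured at chosen time points over 24 hours, with plasma concentrations sampled concurrently.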

[2] = system: rat cardiac contractility (left ventricle fractional shortening); test: Echocardiography of acute effect on rat cardiac contractility, continuous IV infusion; type: in vivo, Sprague Dawley rats; settings: Rattus norvegicus, plasma concentration at which fractional shortening is 50% of pre-dose baseline, estimated, read-out: IC50 (Mean ± S.D.)
Description: Assessment of in vivo cardiac function by echocardiography was performed in male Sprague Dawley rats under isoflurane (1-3%) anesthesia. 2-D M-mode images of the left ventricle were acquired in the parasternal long-axis view before, during, and after administration of compounds by continuous IV infusion or oral gavage. In vivo fractional shortening was determined by M-mode image analysis with the following calculation: ((End diastolic diameter−end systolic diameter)/end diastolic diameter×100). For continuous IV infusion experiments, three pre-dose baseline M-mode images were taken at 1 minute intervals prior to infusion of compound. Compounds were formulated in 50% Propylene Glycol (PG): 16% Captisol: 10% dimethylacetamide (DMA) and delivered via a jugular vein catheter at the rate of 1 mL/kg/h. During infusion, M-mode images were taken at 5 minute intervals. The infusion stopped when fractional shortening reached up to a 60% reduction from baseline. Blood samples were taken to determine the plasma concentration of the compounds. Data was reported as an estimated IC50 value, which is the concentration at which fractional shortening is 50% of the pre-dose baseline contractility.

[3] = system: adult cardiac ventricular rat myocytes; test: Adult ventricular myocyte contractility (fractional shortening); type: cell-based; settings: 5 min, 5 μM compound, 5 min perfusion, read-out: % FS (% reduction from baseline) ± SEM
Description: Adult male Sprague-Dawley rats were anesthetized and the hearts were quickly excised, rinsed and the ascending aorta was cannulated. Continuous retrograde perfusion was initiated on the hearts at a perfusion pressure of 60 cm H2O. Hearts were first perfused with a nominally Ca^2+-free modified Krebs solution of the following composition: 113 mM NaCl, 4.7 mM KCl, 0.6 mM KH2PO4, 0.6 mM Na2HPO4, 1.2 mM MgSO4, 12 mM NaHCO3, 10 mM KHCO3, 30 mM taurine, 5.5 mM glucose and 10 mM Hepes (all Sigma). This medium is not recirculated and is continually aerated with a 95% O2/5% CO2 mixture. After approximately 3 minutes the heart was perfused with a modified Krebs buffer supplemented with collagenase (Worthington) and 12.5 μM final calcium concentration. The heart was removed from the cannulae after the heart appeared blanched and soft in appearance. The atria and vessels were removed and the ventricles were gently dissected into smaller pieces with forceps. The tissue was homogenized by repeated pipette trituration and the collagenase reaction was stopped by 10% bovine calf serum (BCS), sedimentation and resuspension in perfusion buffer containing 5% BCS and 12.5 uM CaCl2). Myocytes were made calcium tolerant by stepwise addition of a CaCl2) solution to a final concentration of 1.2 mM. Cells were then washed and resuspended in Tyrode's buffer (137 mM NaCl, 3.7 mM KCl, 0.5 mM MgCl, 11 mM glucose, 4 mM Hepes, and 1.2 mM CaCl2), pH 7.4). Cells were kept for 60 min at 37° C. prior to initiating experiments and used within 5 hrs of isolation. […] Additionally, only cells whose basal contractility was between 3 and 8% were used in subsequent experiments with compounds.
Aliquots of myocytes in Tyrode's buffer were placed in perfusion chambers (series 20 RC-27NE; Warner Instruments) complete with heating platforms. Myocytes were allowed to attach, the chambers were heated to 37° C., and the cells were perfused with 37° C. Tyrode's buffer. Myocytes were field stimulated at 1 Hz in with platinum electrodes (20% above threshold). Only cells that had clear striations and were quiescent prior to pacing were used for contractility experiments. To determine basal contractility, myocytes were imaged through a 40× objective. […] Once cell contraction was stable over time, test compounds (0.01-15 μM) were perfused into the chambers on the myocytes for 5 minutes. Contractility of the myocytes and contraction and relaxation velocities were then recorded using edge detection.
Five or more individual myocytes were tested per compound from two or more different myocyte preparations. For each cell, twenty or more contractility transients at basal (defined as 1 min prior to compound infusion) and after compound addition (defined as 5 min after starting compound perfusion), were averaged and compared. These average transients were analyzed using the IonWizard software (IonOptix) to determine changes in diastolic length and fractional shortening. Fractional shortening was calculated as: ((resting length−length at peak contraction) divided by the resting length). The percent change in fractional shortening from baseline was calculated as: ((post-dose fractional shortening/basal fractional shortening)*100). The percent reduction in fractional shortening from baseline was calculated as: (100−percent change in fractional shortening from baseline). Maximum contraction and relaxation velocities (um/sec) was also determined. Results from individual cells are averaged and the SEM calculated.

[4] = system: Dahl Salt Sensitive (DSS) rats, hypertension-induced model of heart failure with preserved ejection fraction; test: Fibrosis reduction in Dahl Salt Sensitive rat model of cardiac hypertrophy; type: in vivo; settings: high-salt diet fed DSS rats, compound formulated in chow for 6 weeks, perivascular and interstitial cardiac tissue
Description: Assessment of fibrosis reduction was performed using Dahl Salt Sensitive (DSS) rats, a previously reported hypertension-induced rat model of heart failure with preserved ejection fraction (Fillmore et al., Mol Med. 2018, 24(1):3; Dahl et al., J Exp Med. 1962, 115:1173-90).
DSS rats received vehicle or Compound 142 formulated in low or high salt chow for 6 weeks. Perivascular and interstitial cardiac tissue samples were imaged and assayed for % cardiac fibrosis.

IC50 ([1]; Rattus norvegicus, oral dosing, plasma concentration at which fractional shortening is 50% of pre-dose baseline, estimated): 2900 nM
IC50 [2]: 2700 ± 120 nM
SMILES: CC(C)c1nc(-c2ccc3c(c2)CC[C@H]3NC(=O)c2nnn(C)n2)no1 [Compound 142, (R)—N-(5-(5-isopropyl-1,2,4-oxadiazol-3-yl)-2,3-dihydro-1H-inden-1-yl)-2-methyl-2H-tetrazole-5-carboxamide]
inhibition in vivo at 6 mg/kg ([1]; Rattus norvegicus, 1 h, 1-2 h post dose, read-out: FS (% reduction from baseline) at 1-2 h post dose (Mean ± S.D.)): 40 ± 9%
inhibition in vivo at 6 mg/kg ([1]; Rattus norvegicus, 4 h post dose, read-out: FS (% reduction from baseline) at 4 h post dose (Mean ± S.D.)): 18 ± 11%
IC10 ([1]; oral dosing, plasma concentration at which, estimated): 700 nM
inhibition at 5 µM [3]: 67.8%
% cardiac fibrosis [4]: attenuated increases in fibrosis
